Structures are written as SMILES. “Also recorded” adds a separate entry of the source. Bounds are passed on as bounds.

Data set [1] deals with C. albicans ATCC 10231 (strain B) biofilm. The experiment in a line: Biofilm disruption assay (XTT, SMIC90), POS and EBA. The conditions noted are these: drug alone. Type of data set: cell-based, Candida albicans. Here is the method:
(§1) Biofilm disruption assays. […] Biofilm assays were performed in 96-well plates using XTT [2,3-bis(2-methoxy-4-nitro-5-sulfophenyl)-2H-tetrazolium-5-carboxanilide] to measure the viability of the biofilm as previously described. An overnight culture of yeast was grown at 35° C. in YEPD medium with shaking at 200 rpm. The overnight culture was diluted in RPMI 1640 medium to an OD600 between 0.12 and 0.15 to make a working stock. Working stock was transferred to the 96-well plate in 100 μL aliquots, leaving one column empty for the sterile control. The plates were incubated at 37° C. for 24 h to allow formation of the biofilm. The medium and planktonic cells from the plate were then aspirated. PBS was then used to wash any remaining planktonic cells off of the biofilm wells. 100 μL of PBS was aliquoted into wells and then removed. The wells were washed 3 times with PBS. […] Plates were incubated at 37° C. for 24 h. Finally, the plates were washed 3 times with PBS before adding 100 μL of XTT dye. The XTT was prepared by dissolving XTT at 0.5 mg/mL concentration in sterile PBS. Before adding to a plate, 1 μL of 10 mM menadione in acetone was added to 10 mL of the 0.5 mg/mL solution of XTT. After addition of XTT (containing menadione), the plates were incubated at 3 h at 37° C. in the dark. 80 μL of liquid from each well was transferred to a new plate. Plates were then read with a SpectraMax M5 plate reader (Molecular Devices, Sunnyvale, Calif., USA) for absorbance at 450 nm. For these experiments, we determined the sessile MIC (SMIC90), which is defined as the drug concentration required to inhibit the metabolic activity of biofilm by 90% compared to the growth control. The SMIC90 values were used to calculate the FICI as described above (TABLE 10). The plates used to determine the SMIC90 are provided in FIGS. 91A-H. Each assay was performed in duplicate.
Background: Formazan colour is commonly taken as a measure of viable cells.

Data set [2] has as its system C. glabrata ATCC 2001 (strain H) biofilm. The data set is described as above. The conditions noted are these: drug alone. Type of data set: cell-based, Candida glabrata. Here is the method:
as §1

Data set [3] relates to C. albicans ATCC 10231 (strain B). The data set is described as follows: MIC and checkerboard assay, azoles + compounds 1-5. Type of data set: cell-based, Candida albicans. On the procedure: (§2) These compounds were serially diluted (two-fold dilutions) horizontally on the plate in 100 μL of RPMI medium. A diluted yeast culture (25 μL of a fungal stock with OD600 of 0.125 in 10 mL of RPMI medium, which achieves a final inoculum size of around 1-5×10^3 CFU/mL) was plated across the plate (100 μL per well), making a final volume of 200 μL total per well.
(§3) The appropriate range of concentrations for each compound was determined based on their corresponding MIC values against each fungal strain. The inoculum size for yeast and filamentous fungi were the same as in the MIC experiments described in section 2.2. The 96-well plates were incubated at 35° C. for 48 h for yeasts and 72 h for the Aspergillus strain before visual inspection for growth. […] The combinational effect of the two tested compounds were considered synergistic (abbreviated SYN) if FICI<0.5, additive (abbreviated ADD) if 0.5<FICI<4, and antagonistic if FICI>4 (TABLES 2-4).

In data set [4] the test system is C. albicans ATCC 64124 (strain F). The data set is described as follows: MIC and checkerboard assay, azoles + compounds 1-5. In kind it is cell-based, Candida albicans. The conditions noted are these: for MIC in combination: MIC of the labelled drug; for MICalone: drug alone. Here is the method:
as §2, §3

The test system of data set [5] is C. albicans ATCC 90819 (strain G). The data set is described as follows: MIC and checkerboard assay, azoles + compounds 1-5. Type of data set: cell-based, Candida albicans. On the procedure: as §2, §3
Data set [6] relates to C. glabrata ATCC 2001 (strain H). The experiment in a line: MIC and checkerboard assay, azoles + compounds 1-5. In kind it is cell-based, Candida glabrata. On the procedure: as §2, §3
Data set [7] concerns Aspergillus terreus ATCC MYA-3633 (strain I). The experiment in a line: MIC and checkerboard assay, azoles + compounds 1-5. Type of data set: cell-based. Conditions: in combination with POS. Here is the method:
as §2, §3

The subject of data set [8] is C. albicans ATCC 64124 (strain F). The experiment in a line: Time-kill assay, azoles + compound 2. In kind it is cell-based, Candida albicans. On the procedure:
Each sample was incubated at 35° C. with shaking at 200 rpm. At various time points (0, 3, 6, 9, 12, and 24 h), 100 μL aliquots were taken from each sample and serially diluted (10-fold dilutions) in sterile ddH2O. 100 μL of each dilution was spread onto PDA plates and incubated at 35° C. for 48 h before colony counts were determined (FIGS. 2A-B). At the end of the 24-h experiment, 50 μL of 1 mM sterile resazurin solution was added to each sample for visual comparison of growth. Each experiment was performed in duplicate.

Data set [9] concerns C. albicans ATCC 64124 (strain F) biofilm. The data set is described as follows: Biofilm disruption assay (XTT, SMIC99), azoles + compound 2. Type of data set: cell-based, Candida albicans. The conditions noted are these: for FICI / Interp.: biofilm. Here is the method: In order to investigate the synergistic effect of azoles and our compounds on inhibiting biofilm formation of C. albicans ATCC 64124 (strain F), we performed a biofilm disruption assay in a checkerboard setup and used XTT [2,3-bis(2-methoxy-4-nitro-5-sulfophenyl)-2H-tetrazolium-5-carboxanilide] reduction to examine the metabolic activity of the biofilm. Briefly, C. albicans ATCC 64124 (strain F) was grown overnight in YEPD broth at 35° C. The culture was then diluted to an OD600 of 0.12 (equivalent to 1×10^6 CFU/mL) and 100 μL was placed into each well of a 96-well plate. The cells were incubated at 37° C. for 24 h for growth. The following day, the spent medium containing planktonic cells was aspirated and each wells were carefully washed three times with sterile phosphate buffer saline (PBS). […] The negative control (medium only) and the positive control (biofilm plus medium) wells were also included in the same 96-well plate. The plates were then incubated at 37° C. statically for additional 24 h and then washed with sterile PBS. 100 μL of a XTT (0.5 mg/mL)/menadione (1 μM) solution was added to each well, covered with aluminum foil, and incubated for 2 h at 37° C. Then, 80 μL of the colored supernatant from each well was transferred to a new 96-well plate, and the absorption was read at OD490. The percent metabolic activity of the formed biofilm at various drug concentration combinations was calculated by dividing the metabolic activity of biofilm formed for that well by that of the biofilm formed in the growth control well (in the absence of any drug). For these experiments, the sessile MIC (SMIC99) was determined, which is defined as the drug concentration required to inhibit the metabolic activity of biofilm by 99% compared to the growth control. The assay for each combination was performed in duplicates.

For another data set, the system named is J774A.1 cells. The experiment in a line: Mammalian cytotoxicity assay, azoles and compound 2. The text has this:
(§4) David K. Orren (University of Kentucky, Lexington, Ky.) and Prof. David J. Feola (University of Kentucky, Lexington, Ky.), respectively.

For another data set, the system named is BEAS-2B cells. The data set is described as above. Type of data set: cell-based, human.
From the text: as §4

A further data set concerns HEK-293 cells. The data set is described as above. In kind it is cell-based, human.
From the text: as §4

Setting [10] is: combination with POS at 8×MICcombo.
The mark [11] stands for this setting: combination with VOR at 8×MICcombo.
Setting [12] is: azole 16 μg/mL + 8 μg/mL compound 2.
Where [13] appears, read: azole at any concentration + 32 μg/mL compound 2.
Where [14] appears, read: drug alone, up to highest concentration tested (azoles 16 μg/mL, compound 2 64 μg/mL).

For the molecule `C[C@@H]1[C@H](O)[C@@H](C)/C=C/C=C/C=C/C=C/C=C/C=C/C=C/[C@H](O[C@@H]2O[C@H](C)[C@@H](O)[C@H](N)[C@@H]2O)C[C@@H]2O[C@](O)(C[C@@H](O)C[C@@H](O)[C@H](O)CC[C@@H](O)C[C@@H](O)CC(=O)O[C@H]1C)C[C@H](O)[C@H]2C(=O)O` [AMB, amphotericin B], the results for the SMIC90 in data set [1] and in [2] were more than 32 µg/mL and 4 µg/mL, respectively.
Consider `O=C(CCCN1CCC(O)(c2ccc(Br)cc2)CC1)c1ccc(F)cc1` [Compound 2, bromperidol], for which the “combinational effect (FICI interpretation)” value (from here on “combinational effect”) in data set [3] (in combination with ITC), in [3] (in combination with KTC), in [3] (in combination with POS), in [3] (in combination with VOR), in data set [4] (in combination with ITC) and in data set [4] (in combination with KTC) was “partial synergy” in each case. The “combinational effect” value in data set [4] (in combination with POS) is “synergy”; in data set [4] (in combination with VOR), “synergy”; in [5] (in combination with POS), “synergy”; in data set [5] (in combination with VOR) it was “synergy”; in data set [6] (in combination with POS) it was “partial synergy”; in data set [6] (in combination with VOR), “partial synergy”. In [7], the “combinational effect” value is given as “synergy; also recorded: synergistic”. In addition, the figures for the MIC in combination in [4] (combination compound 2 + ITC) and in data set [4] (combination compound 2 + POS) were 64 µg/mL and 4 µg/mL, respectively. For the same molecule, the MICalone in data set [4] was 128 µg/mL. Further, the FICI in [4] (in combination with ITC) came to 0.56; in data set [4] (in combination with POS), 0.16; in [9] (in combination with POS), 1.02; in data set [9] (in combination with VOR), 1.02. In addition, the “CFU/mL throughout 24 h” value in data set [8] (setting [10]) is on record as “around 1×10^5 CFU/mL”. The time-kill effect entry in data set [8] (setting [10]) and in data set [8] (setting [11]) was “fungistatic effect” throughout. Also, the “reduction in CFU/mL over 24 h” value in data set [8] (setting [11]) is given as “about 1 log10 unit”. Besides, in data set [8] (drug alone at the concentration of the 8×MICcombo sample, 24 h), the “increase in CFU/mL” value was “about 1 order of magnitude”. In addition, the Interp. entry in data set [9] (in combination with POS) and in data set [9] (in combination with VOR) was “ADD*” in each case. Further, the “SMIC alone (μg/mL) Cpd” value in data set [9] (compound alone, sessile cells) is more than 128 µg/mL. The “SMIC combo (μg/mL) Cpd” value in data set [9] (compound in combination with POS) and in [9] (compound in combination with VOR) was 128 µg/mL throughout. In addition, the results for the cell survival in the data set with J774A.1 cells (drug alone at 16 μg/mL), in the data set on J774A.1 cells (drug alone at 32 μg/mL) and in the data set with J774A.1 cells (drug alone at 64 μg/mL) were 72±14%, 50±7% and 30±4%, respectively. For the same molecule, in the data set with J774A.1 cells (drug alone, stated for all three cell lines (BEAS-2B, HEK-293, J774A.1), J774A.1 limiting), the “highest concentration at which no cytotoxicity was observed” value is 8 µg/mL.
In the case of `COc1ccc(C(=O)CCCN2CCC(O)(c3ccc(Br)cc3)CC2)cc1` [Compound 5], the “combinational effect” value is “Partial synergy” in data set [3] (in combination with VOR); “synergistic interactions” in [4] (in combination with POS); “strong additive effect” in data set [4] (in combination with VOR); “partial synergy” in [6] (in combination with POS); “synergistic” in data set [7]. The “fold reduction in MIC (combination vs alone)” value in data set [4] (combination compound 5 + VOR, reduction for the labelled drug) was determined as 16 fold. The MICalone in [4] is more than 128 µg/mL. In addition, the FICI in data set [4] (in combination with POS) is recorded as 0.13.
For the molecule `C[C@@H](c1ncncc1F)[C@](O)(Cn1cncn1)c1ccc(F)cc1F` [VOR, voriconazole], in data set [4] (combination compound 5 + VOR), the MIC in combination turned out to be 2 µg/mL. Besides, in data set [9] (azole alone, sessile cells), the “SMIC alone (μg/mL) Azole” value was more than 32 µg/mL. Further, in [9] (azole in combination with compound 2), the “SMIC combo (μg/mL) Azole” value was determined as 0.5 µg/mL. Besides, the cytotoxicity result is listed as “no toxicity” in the data set on BEAS-2B cells (setting [12]); “no toxicity” in the data set on BEAS-2B cells (setting [13]); “No cytotoxic effect” in the data set with BEAS-2B cells (setting [14]); “no toxicity” with HEK-293 cells (setting [12]); “no toxicity” in the data set on HEK-293 cells (setting [13]); “No cytotoxic effect” in the data set on HEK-293 cells (setting [14]). Also, the cytotoxicity entry in the data set with J774A.1 cells (setting [12]) is given as “no toxicity”; with J774A.1 cells (drug alone, any concentration tested (up to 16 μg/mL)), “No cytotoxic effect”.

The values are drawn from patent US20190015400A1, “Antifungal Compositions” (priority 2017, published 2019).
